# Patent US20230226012A1, “USE OF USNIC ACID, A SALT OF USNIC ACID, OR A FORMULATION THEREOF IN THE PREPARATION OF ANTI-AVIAN COCCIDIOSIS DRUGS OR FEED ADDITIVES” (priority 2022, published 2023)
# Tested on: Eimeria tenella
# Assay: Anticoccidial test in chickens orally inoculated with sporulated oocysts of Eimeria tenella (anticoccidial index, ACI)
# Type: in vivo
# Settings: for Lesion value: cecum, 7th day after infection; for Oocyst value: converted according to Table 2; for Clinical symptoms (bloody stool): after infection
# Text: Male chicks from layer aged 1 day were selected and raised to 12-day-old. Each was weighed, while excluding thin or overweight individuals, healthy chickens with individual weight differences of less than 10 g were selected, and randomly divided into thirteen groups with each group including thirty chickens. Among them, ten groups were used as drug groups, one group as a model group, one group as a diclazuril group, and one group as a blank control group. Each chicken aged 12 days of the drug groups was subject to drug administration through mixing with feed, while that of the diclazuril group was administrated though drinking water. Each chicken aged 14 days in the drug groups, the diclazuril group and the model group was orally inoculated with 1.0×10^4 sporulated oocysts of Eimeria tenella. Each experimental chicken in all groups was free to feed and drink water until the test was over on the seventh day.
# The anticoccidial index (ACI) criteria were calculated by
# the calculation formula of Merck Corporation (USA), that is:
# ACI=(relative weight gain rate+survival rate)×100−(lesion value+oocyst value).
# Among them, the relative weight gain rate was calculated by
# weighing each chicken at the beginning and end of the test, respectively, to calculate the average and relative weight gain rates. Relative weight gain rate=(test group weight gain rate/blank control group weight gain rate)×100%.
# The survival rate was calculated by
# recording the number of dead chickens in each group, performing an autopsy to determine the cause of death, and calculating the survival rate. Survival rate=(number of chickens alive at the end of the test/number of chickens in the test group)×100%
# The lesion value was calculated by
# slaughtering each chicken on the 7th day after infection to take the cecum (as shown in FIG. 5-6), and scoring the intestinal lesion of each chicken according to the lesion scoring method designed by […] and Reid (1970), and converting the lesion score into the lesion value.
# Lesion scoring: (in case of lesion inconsistence between both sides of cecum, the more severe shall prevail):
# 0 point: no macroscopic lesions;
# 1 point: there are a few of petechiae scattered in the cecal wall, the cecal wall is not thickened, and the contents therein are normal;
# 2 points: the lesion number is more, the cecum contents are obviously bloody, the cecal wall is slightly thickened, and the contents therein are normal;
# 3 points: there is a lot of blood or there is a cecum core (blood clot or off-white cheese-like banana-shaped blocks) in the cecum, the cecal wall is obviously thickened, and the feces contents in the cecum are poor;
# 4 points: the cecum swells due to being full of a large amount of blood or cecum core with or without fecal residue, and it is also scored 4 points when the chicken dies for coccidiosis.
# Lesion value (0-40)=average lesion score (0-4) for each test group×10
# The oocyst value and the relative oocyst production (ROP) were calculated by collecting the chicken feces of each group, counting the number of oocysts in the feces according to McMaster counting, calculating the number of oocysts per gram of feces of each group, and obtaining the oocyst value by conversion according to Table 2.
# Relative oocyst production (ROP)=(average oocyst production in the test group/average oocyst production in the model group)×100%. ROP≥15%, resistant to drugs; ROP<15%, no drug resistance.
# The criteria for determining the drug efficacy were: ACI>180, high efficacy against coccidiosis; 160<ACI<180, medium efficacy against coccidiosis; 120<ACI<160, low efficacy against coccidiosis; ACI<120, inefficacy against coccidiosis.
# Male chicks from layer aged 1 day were selected and raised to 12-day-old. Each was weighed, while excluding thin or overweight individuals, healthy chickens with individual weight differences of less than 10 g were selected, and randomly divided into 6 groups with each group including thirty chickens. […]
# [1] = Example 2, Drug groups 1, 2 5 kg/ton in feed, Drug group 3 1:400 drinking water, diclazuril 0.2 ml/L
# [2] = Example 3, Drug groups 5 kg/ton in feed, diclazuril 0.2 ml/L drinking water
smiles,measurement,setting,value
N#CC(c1ccc(Cl)cc1)c1c(Cl)cc(-n2ncc(=O)[nH]c2=O)cc1Cl (stereo not drawn) [Diclazuril],Effect against avian coccidiosis (conclusion),Example 1,high therapeutic effect
same,"Clinical symptoms (bloody stool, food intake)","Example 1, 4th to 6th day after infection",no bloody stool
same,Bloody stool (feces observation),"Example 1, 5th day after Eimeria challenge, partially mixed with blood / a large amount of feces mixed with blood / bloodless",bloodless
same,ACI value,"Example 1, ACI=(relative weight gain rate+survival rate)×100−(lesion value+oocyst value), herbs 5 kg/ton in feed, diclazuril 0.2 ml/L drinking water",201.2
same,Relative oocyst production (ROP),"Example 1, average oocyst production relative to model group, herbs 5 kg/ton in feed, diclazuril 0.2 ml/L drinking water",0.0%
same,Lesion value,"Example 1, lesion value (0-40) = average lesion score ×10, herbs 5 kg/ton in feed, diclazuril 0.2 ml/L drinking water",0.0
same,Relative weight gain rate,"Example 1, chickens, 1.0×10^4 oocysts at 14 days of age, herbs 5 kg/ton mixed with feed, diclazuril 0.2 ml/L drinking water, 9 days, relative to blank control",101.2%
same,Survival rate,"Example 1, chickens, 1.0×10^4 oocysts, herbs 5 kg/ton in feed, diclazuril 0.2 ml/L drinking water, 9 days",100%
same,Criteria (drug efficacy by ACI),"Example 1, herbs 5 kg/ton in feed, diclazuril 0.2 ml/L drinking water","High (ACI>180, high efficacy against coccidiosis)"
same,Oocyst value,"Example 1, oocysts per gram of feces relative to model group, herbs 5 kg/ton in feed, diclazuril 0.2 ml/L drinking water",0
same,Effect against avian coccidiosis (conclusion),Example 2,high therapeutic effect
same,ACI value,[1],198.9
same,Criteria (drug efficacy by ACI),[1],"High (ACI>180, high efficacy against coccidiosis)"
same,Survival rate,"Example 2, Drug groups 1, 2 5 kg/ton in feed, Drug group 3 1:400 drinking water, diclazuril 0.2 ml/L drinking water",100%
same,Clinical symptoms (bloody stool),Example 2,no bloody stool
same,Lesion value,[1],0
same,Relative weight gain rate,"Example 2, chickens, 1.0×10^4 oocysts, Drug groups 1, 2 5 kg/ton in feed, Drug group 3 1:400 drinking water, diclazuril 0.2 ml/L drinking water, 9 days",98.9%
same,Oocyst value,[1],0
same,Relative oocyst production (ROP),"Example 2, relative to model group, Drug groups 1, 2 5 kg/ton in feed, Drug group 3 1:400 drinking water, diclazuril 0.2 ml/L",0%
same,ACI value,[2],198.4
same,Criteria (drug efficacy by ACI),[2],"High (ACI>180, high efficacy against coccidiosis)"
same,Survival rate,[2],100%
same,Clinical symptoms (bloody stool),Example 3,no bloody stool
same,Lesion value,[2],0
same,Relative weight gain rate,"Example 3, chickens, 1.0×10^4 oocysts, Drug groups 1-3 5 kg/ton in feed, diclazuril 0.2 ml/L drinking water, 9 days",98.4%
same,Oocyst value,[2],0
same,Relative oocyst production (ROP),"Example 3, relative to model group, Drug groups 5 kg/ton in feed, diclazuril 0.2 ml/L drinking water",0%
